According to US10597388B2, “Pyridazinone herbicides” (FMC CORPORATION, priority 2014, dated 2020):

Legend:
Format in all cases: in vivo
[1] = test system: oilseed rape (Brassica napus); experiment: Test C greenhouse herbicide test, pre- and postemergence
Method in brief: (§1)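 Percent-control ratings (0 none, 100 complete) came from visual comparison with controls held alongside in the greenhouse for 13–15 d. Treatments covered soil application at sowing and foliar application to young plants 2–18 cm tall.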

[2] = test system: johnsongrass (Sorghum halepense); experiment: as above
Method in brief: as §1

[3] = test system: ragweed (common ragweed, Ambrosia elatior); experiment: as above
Method in brief: as §1

[4] = test system: foxtail, giant (giant foxtail, Setaria faberii); experiment: Test A greenhouse herbicide test, pre- and postemergence
Method in brief: (§2)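 Visual injury ratings, 0 (no effect) to 100 (complete control), versus untreated plants after roughly 10 d in a greenhouse. Compounds, formulated in a surfactant-containing non-phytotoxic solvent, were sprayed on loam–sand soil after sowing (pre) or on one- to two-leaf plants 2–10 cm tall (post).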

corn (Zea mays) = experiment: as above; details: Postemergence
Method in brief: as §2

kochia (Kochia scoparia) = experiment: as above
Method in brief: as §2

[5] = test system: ragweed (common ragweed, Ambrosia elatior); experiment: as above
Method in brief: as §2

[6] = test system: ryegrass, Italian (Italian ryegrass, Lolium multiflorum); experiment: as above
Method in brief: as §2

[7] = test system: wheat (Triticum aestivum); experiment: as above; details: Postemergence
Method in brief: as §2

[8] = test system: pigweed (Amaranthus retroflexus); experiment: as above
Method in brief: as §2

[9] = Postemergence, 31 g ai/ha, scale 0 to 100 (0 no effect, 100 complete control)
[10] = Postemergence, 125 g ai/ha, scale 0 to 100, 0 is no effect, 100 is complete control
[11] = Postemergence, 250 g ai/ha, scale 0 to 100, 0 no effect, 100 complete control, 13 to 15 d
[12] = Preemergence, 31 g ai/ha, scale 0 to 100, 0 is no effect, 100 is complete control
[13] = Preemergence, 62 g ai/ha, scale 0 to 100, 0 is no effect, 100 is complete control
[14] = Preemergence, 125 g ai/ha, scale 0 to 100, 0 is no effect, 100 is complete control
[15] = Preemergence, 250 g ai/ha, scale 0 to 100, 0 no effect, 100 complete control
[16] = Postemergence, 125 g ai/ha, 0 to 100 scale where 0 is no effect and 100 is complete control
[17] = Postemergence, 500 g ai/ha, visual rating after approx. 10 d, 0 to 100 scale (0 no effect, 100 complete control)
[18] = Preemergence, 125 g ai/ha, 0 to 100 scale where 0 is no effect and 100 is complete control
[19] = Preemergence, 500 g ai/ha, 0 to 100 scale where 0 is no effect and 100 is complete control
[20] = 125 g ai/ha, 0 to 100 scale where 0 is no effect and 100 is complete control
[21] = 500 g ai/ha, visual rating after approx. 10 d, 0 to 100 scale (0 no effect, 100 complete control)
[22] = Postemergence, 31 g ai/ha, 0 to 100 scale (0 no effect, 100 complete control)
[23] = postemergence, 62 g ai/ha, scale 0 to 100, 0 no effect, 100 complete control
[24] = Postemergence, 125 g ai/ha, visual rating after approx. 10 d, 0 to 100 scale (0 no effect, 100 complete control)
[25] = Postemergence, 500 g ai/ha, 0 to 100 scale, 0 is no effect, 100 is complete control
[26] = Preemergence, 500 g ai/ha, 0 to 100 scale, 0 no effect, 100 complete control
[27] = 500 g ai/ha, 0 to 100 scale, 0 is no effect, 100 is complete control

CC(=O)Oc1c(C)nn(C)c(=O)c1-c1c(C)sc2ccc(Cl)cc12 [Compound 108]
Plant response rating, Oilseed Rape [1, 9]: 80 | Plant response rating, Oilseed Rape [1, 10]: 85 | Plant response rating, Oilseed Rape [1, 11]: 95 | Plant response rating, Oilseed Rape [1, 12]: 5 | Plant response rating, Oilseed Rape [1, 13]: 90 | Plant response rating, Oilseed Rape [1, 14]: 90 | Oilseed Rape plant response rating [1, 15]: 90 | Plant response rating, Johnsongrass [2, 9]: 0 | Plant response rating, Johnsongrass [2, 10]: 5 | Plant response rating, Johnsongrass [2, 11]: 5 | Plant response rating, Johnsongrass [2, 12]: 0 | Plant response rating, Johnsongrass [2, 13]: 5 | Plant response rating, Johnsongrass [2, 14]: 30 | Johnsongrass plant response rating [2, 15]: 20 | Plant response rating, Ragweed [3, 9]: 90 | Plant response rating, Ragweed [3, 10]: 98 | Plant response rating, Ragweed [3, 11]: 100 | Plant response rating, Ragweed [3, 12]: 75 | Plant response rating, Ragweed [3, 13]: 90 | Plant response rating, Ragweed [3, 14]: 98 | Ragweed plant response rating [3, 15]: 98 | Plant response rating, Foxtail, Giant [4, 16]: 60 | Plant response rating, Foxtail, Giant [4, 17]: 90 | Foxtail, Giant plant response rating [4, 18]: 90 | Plant response rating, Foxtail, Giant [4, 19]: 100 | Plant response rating, Corn (corn (Zea mays); [20]): 0 | Plant response rating, Corn (corn (Zea mays); [21]): 0 | Plant response rating, Kochia (kochia (Kochia scoparia); [16]): 90 | Plant response rating, Kochia (kochia (Kochia scoparia); [17]): 100 | Kochia plant response rating (kochia (Kochia scoparia); [18]): 90 | Plant response rating, Kochia (kochia (Kochia scoparia); [19]): 100 | Plant response rating, Ragweed [5, 16]: 70 | Plant response rating, Ragweed [5, 17]: 100 | Ragweed plant response rating [5, 18]: 90 | Plant response rating, Ragweed [5, 19]: 100 | Plant response rating, Ryegrass, Italian [6, 16]: 100 | Plant response rating, Ryegrass, Italian [6, 17]: 100 | Ryegrass, Italian plant response rating [6, 18]: 100 | Plant response rating, Ryegrass, Italian [6, 19]: 100 | Plant response rating, Wheat [7, 20]: 0 | Plant response rating, Wheat [7, 21]: 20 | Plant response rating, Pigweed [8, 16]: 90 | Plant response rating, Pigweed [8, 17]: 100 | Pigweed plant response rating [8, 18]: 100 | Plant response rating, Pigweed [8, 19]: 100

Cc1cc2ccccc2c(-c2c(O)c(C)nn(C)c2=O)c1C [Compound 34]
Oilseed Rape plant response rating [1, 22]: 30 | Plant response rating, Oilseed Rape [1, 10]: 50 | Plant response rating, Oilseed Rape [1, 11]: 20 | Plant response rating, Oilseed Rape [1, 12]: 10 | Plant response rating, Oilseed Rape [1, 13]: 25 | Plant response rating, Oilseed Rape [1, 14]: 90 | Oilseed Rape plant response rating [1, 15]: 90 | Oilseed Rape plant response rating [1, 23]: 30 | Johnsongrass plant response rating [2, 22]: 5 | Plant response rating, Johnsongrass [2, 10]: 5 | Plant response rating, Johnsongrass [2, 11]: 5 | Plant response rating, Johnsongrass [2, 12]: 0 | Plant response rating, Johnsongrass [2, 13]: 0 | Plant response rating, Johnsongrass [2, 14]: 0 | Johnsongrass plant response rating [2, 15]: 20 | Johnsongrass plant response rating [2, 23]: 5 | Ragweed plant response rating [3, 22]: 85 | Plant response rating, Ragweed [3, 10]: 95 | Plant response rating, Ragweed [3, 11]: 95 | Plant response rating, Ragweed [3, 12]: 80 | Plant response rating, Ragweed [3, 13]: 80 | Plant response rating, Ragweed [3, 14]: 90 | Ragweed plant response rating [3, 15]: 95 | Ragweed plant response rating [3, 23]: 98 | Plant response rating, Foxtail, Giant [4, 24]: 30 | Foxtail, Giant plant response rating [4, 25]: 90 | Foxtail, Giant plant response rating [4, 18]: 40 | Plant response rating, Foxtail, Giant [4, 26]: 90 | Plant response rating, Corn (corn (Zea mays); 125 g ai/ha, visual rating after approx. 10 d, 0 to 100 scale (0 no effect, 100 complete control)): 0 | Corn plant response rating (corn (Zea mays); [27]): 0 | Plant response rating, Kochia (kochia (Kochia scoparia); [24]): 70 | Kochia plant response rating (kochia (Kochia scoparia); [25]): 80 | Kochia plant response rating (kochia (Kochia scoparia); [18]): 30 | Plant response rating, Kochia (kochia (Kochia scoparia); [26]): 60 | Plant response rating, Ragweed [5, 24]: 90 | Ragweed plant response rating [5, 25]: 100 | Ragweed plant response rating [5, 18]: 80 | Plant response rating, Ragweed [5, 26]: 90 | Plant response rating, Ryegrass, Italian [6, 16]: 100 | Ryegrass, Italian plant response rating [6, 25]: 100 | Ryegrass, Italian plant response rating [6, 18]: 100 | Plant response rating, Ryegrass, Italian [6, 26]: 100 | Plant response rating, Wheat [7, 20]: 20 | Wheat plant response rating [7, 27]: 40 | Plant response rating, Pigweed [8, 24]: 90 | Pigweed plant response rating [8, 25]: 90 | Pigweed plant response rating [8, 18]: 90 | Plant response rating, Pigweed [8, 26]: 100
